In publication PMC10447463, “Data-mining unveils structure–property–activity correlation of viral infectivity enhancing self-assembling peptides” (Nature Communications, 2023):
Read-outs that look alike come from different tables or passages of the source.

Assays:
[1] = Turbidity, derived count rate of scattered light; assay type: physicochemical; details: for Log Count Rate: log of derived count rate
How it was run: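 Samples: 1 mg/mL in PBS pH 7.4 (from DMSO), 1 d at RT, then diluted in 1 mM KCl immediately before measurement. Triplicates, two independent runs averaged.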

[2] = assay type: physicochemical; set-up: key to Fibril / Fibril Formation / TEM 2cat / Fibril: 1 = fibrils present; 0 non-fibrillar structures; details: for TEM 2cat: fibril category by TEM
[3] = tested on: HIV-1 infection of TZM-bl cells; assay: HIV-1 infectivity enhancement assay, β-galactosidase luminescence; assay type: cell-based; details: for Log10 Inf. rel. to EF-C: log10 of HIV-1 infection of TZM-bl cells relative to EF-C, Fig S15 source data; for Rel-to EFC / n-fold to virus: Fig S8 panels B, D; for Log10 Infection Rel EF-C: HIV-1 infection of TZM-bl cells
[4] = category 1 or 0 from count rate, key not given
[5] = derived count rate of scattered light, mean, std deviation in next column
[6] = derived count rate of scattered light, mean, std deviation in separate column
[7] = Feb2021, 1.3 µM value relative to virus only (0 µM)
[8] = Feb2021, Log10 of infectivity relative to EF-C
[9] = Feb2021, n-fold enhancement relative to EF-C
[10] = Feb2021, n-fold infectivity relative to EF-C
[11] = Feb2021, unrounded values of the 1.3 µM column
[12] = Feb2021 run, infectivity n-fold relative to virus alone
[13] = Feb2021 run, log10 of infectivity relative to EF-C
[14] = Feb2021 run, n-fold infectivity relative to EF-C
[15] = infectivity class (low / medium / high) of each library peptide, main list in c1-c6, same classes repeated in sub-lists of sequences containing the hydrophobicity/charge patterns P+,H0,P+,H0,P0,H0,P0, P+,H0,P0,H0,P0,H0,P0, P+,H0,P0,H0
[16] = infectivity class (low / medium / high) of the peptide in the sequence-pattern analysis, Fig. S22-A4, class limits not given
[17] = Fig S8 panels B, D, turbidity, derived count rate of scattered light
[18] = derived count rate of scattered light
[19] = Feb2021, infectivity relative to virus only
[20] = infectivity enhancement relative to EF-C
[21] = infectivity n-fold relative to virus alone
[22] = Feb2021, figures match the 1.3 µM column
[23] = Fig S8 panels A, C, asymmetric log errors
[24] = Feb2021, log10 of infectivity relative to EF-C

| Substance | Zeta Count Rate Category ([1]; category 1/0, no key printed) | Zeta Count Rate Category [1, 4] | Zeta Count Rate / kcps [1, 5] [kcps] | Zeta Count Rate / kcps [1, 6] [kcps] | TEM: 1= fibrils, 0= aggregates (micelle), 0.5 = aggregates and fibrils, -1 = nothing obersved, STD prep [2] | n-fold to virus (Feb2021) [3, 7] | Log10 of Rel to EFC (Feb2021) [3, 8] | Rel-to EFC (Feb-2021) [3, 9] | Rel-to EFC (Feb-2021) [3, 10] | Absolute Infectivity / RLU /s (Feb2021) [3, 11] [RLU /s] | n-fold to virus (Feb2021) [3, 12] | Log10 of Rel to EFC (Feb2021) [3, 13] | Rel-to EFC (Feb-2021) [3, 14] | infectivity [3, 15] | Log10 Inf. rel. to EF-C ([3]; asymmetric std dev errors) | infectivity [3, 16] | Log Count Rate ([1]; Fig S8 panels B, D) | Count Rate [1, 17] | Rel-to EFC [3, 20] | n-fold to virus [3, 21] | other results |
| --- | --- | --- | --- | --- | --- | --- | --- | --- | --- | --- | --- | --- | --- | --- | --- | --- | --- | --- | --- | --- | --- |
| KAKAQA [JJA2 / TM153] | 0 | 0 | 20.93 | 20.93 | 0 | 0.7586 | -1.743 | 0.01805 | 0.01805 | 146.7 | 0.7586 | -1.743 | 0.01805 | low | -1.743 | – | – | – | – | – | – |
| CKAKAQA [TM155] | 1 | 1 | 362.7 | 362.7 | 0.5 | 1.325 | -1.501 | 0.03153 | 0.03153 | 1740 | 1.325 | -1.501 | 0.03153 | low | -1.501 | low | – | – | – | – | – |
| QCKFKQFFNMWQ [CK10] | – | 1 | 18911.36667 | 18911.36667 | 0.5 | – | -0.606 | 0.2478 | 0.2478 | – | 6.098 | -0.606 | 0.2478 | medium | -0.6059 | – | 4.277 | 18911.4 | 0.2478 | 6.098 | Zeta Count Rate Category ([1]; category 1 / 0, no key given): 1; Zeta Count Rate / kcps [1, 18]: 18911.36667 kcps; n-fold to virus (Feb2021) [3, 19]: 6.098 |
| QCKFKQFFNM [CK11] | – | – | 10384.7 | 10384.7 | 0.5 | – | -0.3706 | – | 0.426 | – | 17.9 | -0.3706 | 0.426 | medium | -0.3706 | – | – | – | – | – | Zeta Count Rate Category ([1]; category 1 / 0, no key given): 1; Zeta Count Rate Category ([1]; category 1 or 0 derived from the count rate, key not given): 1; Zeta Count Rate / kcps [1, 18]: 10384.7 kcps; Absolute Infectivity / RLU /s (Feb2021) [3, 22]: 5847 RLU /s; Rel-to EFC (Feb-2021) ([3]; Feb2021, infectivity enhancement relative to EF-C): 0.426; n-fold to virus (Feb2021) [3, 19]: 17.9 |
| KAKAQANM [TM152] | 0 | 0 | 42.5 | 42.5 | 0.5 | 0.3782 | -2.046 | 0.009 | 0.009 | 496.7 | 0.3782 | -2.046 | 0.009 | low | -2.046 | low | – | – | – | – | – |
| CKIKQII [MG4a] | – | 0 | 74.6 | 74.6 | 0.5 | – | -1.379 | 0.04182 | 0.04182 | – | 1.757 | -1.379 | 0.04182 | – | -1.379 | low | 1.873 | 74.6 | 0.04182 | 1.757 | Log Count Rate [1, 23]: 1.873; Zeta Count Rate Category ([1]; category 1 / 0, no key given): 0; Zeta Count Rate / kcps ([1]; derived count rate from zeta measurement, mean): 74.6 kcps; Zeta Count Rate / kcps [1, 18]: 74.6 kcps; Zeta Count Rate Category ([1]; key not given): 0; Absolute Infectivity / RLU /s (Feb2021) [3, 22]: 796.7 RLU /s; n-fold to virus (Feb2021) [3, 19]: 1.757; Rel-to EFC (Feb-2021) ([3]; infectivity enhancement relative to EF-C (=1), Feb2021 run): 0.04182; n-fold to virus (Feb2021) ([3]; infectivity n-fold relative to virus only, Feb2021 run): 1.757; Log10 of Rel to EFC (Feb2021) ([3]; log10 of infectivity relative to EF-C, Feb2021 run): -1.379 |
| CQFQFQF [QBL4] | 1 | – | 7929 | – | 1 | 14.84 | – | – | 0.3533 | 7570 | – | – | – | medium | -0.4519 | – | 3.899 | 7928.97 | 0.3533 | 14.84 | Log Count Rate [1, 23]: 3.899; Log10 of Rel to EFC (Feb2021) [3, 24]: -0.4519 |
| CKAKAQANMWQ [BL8] | 0 | 0 | 8.967 | 8.967 | 0.5 | 1.837 | -1.359 | 0.04371 | 0.04371 | 600 | 1.837 | -1.359 | 0.04371 | low | -1.359 | – | 0.9528 | 8.97 | 0.04371 | 1.837 | Log Count Rate [1, 23]: 0.9528 |
| KIKIQINMWQ [JG1] | 1 | 1 | 2196 | 2196 | 1 | 12.47 | -0.5276 | 0.2968 | 0.2968 | 6650 | 12.47 | -0.5276 | 0.2968 | medium | -0.5276 | – | – | – | – | – | TEM: 1= fibrils, 0= aggregates (micelle), 0.5 = aggregates and fibrils, -1 = nothing obersved, STD prep ([2]; FigS26): 1; Log10 of Rel to EFC (Feb2021) [3, 24]: -0.5276 |
| RGDKIKIQI | – | – | – | – | – | – | – | – | – | – | – | – | – | – | – | – | – | – | – | – | Log10 Count Rate ([1]; Log10 of derived count rate of scattered light (turbidity)): 2.474; Count Rate / kcps ([1]; derived count rate of scattered light at 633 nm, 173°, from zeta-potential measurement, 0.1 mg/mL in 1 mM KCl after 1 d at 1 mg/mL in PBS, turbidity / microscopic aggregation, mean of triplicate): 298 kcps; Log10 Count Rate ([1]; log10 of derived count rate of scattered light (turbidity)): 2.474; Log10 Count Rate ([1]; turbidity, Log10 of derived count rate of scattered light, Figure 3A source data): 2.474; TEM 2cat ([2]; Fig S10 panel D): 1; TEM 2cat ([2]; FigS12 panel A): 1; Fibril ([2]; FigS12 panel B, TEM): 1; Fibril / Fibril Formation ([2]; TEM, 1 mg/mL, uranyl acetate stain, qualitative): 1; Fibril ([2]; TEM, 1 = fibrils present, 0 = non-fibrillar): 1; Fibril ([2]; TEM, 1 = fibrils present, 0 = non-fibrillar structures): 1; Rel-EFC ([3]; 1.3 µM peptide, infection relative to EF-C (QCKIKQIINMWQ = 1)): 0,02; Log10 Infection Rel EFC ([3]; 1.3 µM peptide, log10 of infection relative to EF-C): -1,81; Log Infectivity ([3]; Fig. S7 panel A (plotted against β-sheet content), Log10 infection relative to EF-C, TZM-bl cells, asymmetric std dev errors): -1.805; Log10 Infection Rel EF-C ([3]; Log10 of infection rate relative to EF-C, Figure 3A source data): -1.81; Log10 Infection Rel EF-C ([3]; infection rate relative to EF-C, log10, data of Figure 2D): -1.805; Log10 Infection Rel EF-C ([3]; infection rate relative to EF-C, log10, source data of Figure 2C): -1.805 |
| CKIKIQINM [MG2] | 1 | 1 | 4228 | 4228 | 1 | 66.78 | 0.2012 | 1.589 | 1.589 | 30273.33333 | 66.78 | 0.2012 | 1.589 | high | 0.2012 | high | – | – | – | – | – |
